Where two headings read alike, the source gives them in different places.
Key:
T. cruzi = T. cruzi mouse model, in-vivo
From the text: In-vitro and in-vivo models were used to test activities of a selection of many compounds. Those activities are summarized in Tables 1-3, showing variation between systems and species. Activities measured in the MP mo and HM mo models have shown the best correlation with results obtained in hamster and mouse models.

Monocytes = assay: Experiment la(f): monocyte spontaneous migration (agarose droplet); assay type: cell-based, human; settings: for Total Area (mm^2) Migration: Table Ia(f)(ii)
Procedure: Monocytes from each human donor were incubated for 30 minutes with three different dose levels of compound la in triplicate. These cells were added to agarose and droplets of agarose containing cells were added to small chambers. A chemotaxis agent was added to induce enhanced migration of the mononuclear cells. The detailed assay procedures are described below.
Cell migration patterns of triplicates within 30% of each other were generally accepted.
• 1. Add 6 ml Phosphate Buffered Saline (PBS) 2X to 7 ml of Percoll. • 2. Add mixture to 15 ml polycarbonate centrifuge tubes (Sorvall ^*03243, 18 x 100 mm, pt. ^*00770 50/box, w/caps). ' • 3. Centrifuge tubes at 21,000 x g for 45 minutes (Sorvall, RC2-B centrifuge w/SS-34 rotor, 34 fixed angle, -15,000 rpm w/Drake off @ 4 C). Percoll gradient is good for two weeks. • 4. Mononuclear cells are separated from whole blood by differential centrifugation using a synthetic separation medium. • 5. Cells are washed 2X with Basal Salt Solution (BSS). • 6. Resuspend cells in BSS + 10% BCS, then add mixture to 50 ml centrifuge tubes containing 30-40 ml of Bovine Calf Serum (BCS) and centrifuge at 400 x g for 10 minutes. • 7. Resuspend cells in BSS without BCS. • 8. Determine viable cell number. • 9. Adjust concentration of cells to […]. • 10. Carefully layer 2 ml of cells on top of Percoll gradient. Centrifuge tubes at 100 x g for 20 minutes at 4°C with brake off. • 11. Monocyte layer is harvested with a pasteur pipet and aliquoted into a 50 ml centrifuge tube. Dead cells are in the top band. Monocytes are about 5 ml above middle gradient. Lymphocytes are about 5 ml below middle gradient. […] Wash cells 3X in BSS without BCS. • 13. Resuspend cells in desired media. • 14. Perform esterase stain on monocyte cell suspension to determine ratio of monocytes. Ratio ranges from 50 - 80%.
• 1. A 0.4% solution of Agarose (Seakem HE) and distilled H20 is prepared, aliquoted into 1 dram vials, autoclaved and stored at 4° C until used. • 2. A suspension of […] cells in Media 199 2X containing glutamine 2mM, gentamicin 50 µg/ml and bovine calf serum-heat inactivated (56° C, […]) 20%, is combined with an equal amount of 0.4% Agarose. • 3. A 5 µl droplet of cell/agarose mixture is added to the centre of a Sterilin plate (Surrey, England). • 4. A 2 µl droplet of agarose/media mixture is added 3-5mm to one side of the cell/agarose droplet and a 2 µl droplet of agarose/chemo-attractant (N-formyl-L-methionyl-L-Leucyl-L-Phenylalanine 10^-4 M(F-Met-Leu-Phe)) is added 3-5mm to the other side of the cell/agarose droplet. • 5. The droplets are allowed to solidify, after which 0.5 ml of RPMI-1640 containing glutamine 2mM, gentamicin 50, µg/ml and bovine calf serum 10% is added to the well. A cover slip is then placed over the well. • 6. The plate is incubated at 37° C, 5% C02/air humified for approximately 18 hours. • 7. The plate is removed from the incubator and the distance the cells have moved towards the media control and the chemoattractant droplets is traced and measured.

HIV-1 [1] = assay: HIV-1 production from patients' lymphocytes cocultured with PHA-stimulated normal PBL, p24 antigen capture; assay type: cell-based; settings: 3.75 µM or higher; Figure 14
Procedure: HIV-1 production from an AIDS patients' lymphocytes was carried out as described previously. Briefly, 10x10^6 patients' lymphocytes were cocultured with 5x10^6 PHA-stimulated normal PBL in RPMI 1640 medium containing 20% FBS, 5% interleukin 2 (Cellular Products, Buffalo, NY) and various concentrations of IPA. The culture was continued for 4 weeks. The culture was fed twice a week with 2-3x10^6 PHA-stimulated normal PBL. Culture medium was withdrawn twice a week and tested for the presence of HIV by the antigem capture test. Culture medium was replaced with new medium with or without drug at 3-4 days intervals.
A study of IPA inhibition of HIV-1 production from lymphocytes of a HIV-1 seropositive patient was carried out. For this purpose, lymphocytes from an AIDS patient and an asymtomatic patient were cocultured with PHA stimulated PBL in the presence or absence of IPA. Results shown in Figure 14 indicate that IPA inhibited HIV-1 production in a dose dependent manner. […] In contrast, HIV-1 was detected in untreated cultures as early as 7 days following cocultivation.

PBL = assay: Growth of PBL following cocultivation of patient's lymphocytes with PHA-PBL; assay type: cell-based, human; settings: 30 u.M or lower; up to 10 days in culture
HIV-1 [2] = assay: Experiment la(b): H9 cells, HIV-1, antibody assay; assay type: cell-based; settings: Human immunodeficiency virus 1
Procedure: Fresh macrophage cultures were obtained by incubation of mononuclear cells obtained from a leukopak directly in the wells of a microtiter plate having 6 wells per row. After removal of non-adherent cells, each row of the adherent macrophages was infected with 10-fold serial dilutions of HIV-I, with the use of polybrene to enhance uptake of the virus. After one to two hours, the virus inoculum was removed and replaced with fresh normal growth medium. The fresh medium for each row contained a particular concentration of AZT, dideoxy cytidine (ddC), or compound la, as indicated by the left-hand column of Table la(a). The first row of wells acted as a control, and to it was added fresh medium containing none of the three drugs. Medium levels were maintained for two to four weeks to allow replication of the virus to take place, with at least one complete fluid change to remove residual virus inoculum. The contents of each well were then tested for the level of HIV p24 antigen present using a commercially available antigen capture kit employing a radio-immunoassay which can detect as little as 10'^9gm of p24 present in a sample. The above procedure was done in duplicate runs.
A procedure similar to that followed in Experiment la(a) was followed using infected H9 cells, H9 cells being a permanent human T-cell line.
A procedure similar to that followed in Experiment la(a) was followed using infected H9 cells, being a permanent human T-cell line.

CC(C)=CCNc1ncnc2c1ncn2[C@@H]1O[C@H](CO)[C@@H](O)[C@H]1O [IPA, N^6-(Δ^2-isopentenyl) adenosine]
activity, mouse model (T. cruzi; T. cruzi strain Sonya): +
activity, mouse model (T. cruzi; T. cruzi strain Y): ++
reduction in spontaneous migration (Monocytes; 30 µM): 15%
spontaneous migration (Monocytes; 0.1 - 0.3 µM): Enhanced spontaneous migration
reduction in the ability of the monocytes to spontaneously migrate (Monocytes; 100 - 1000 µM): 22-37%
Total Area (mm^2) Migration (Monocytes; IPA 5 µM, media 9085): 7952 mm^2
Total Area (mm^2) Migration (Monocytes; IPA 10 µM, media 9085): 6846 mm^2
Total Area (mm^2) Migration (Monocytes; IPA 15 µM, media 9085): 6300 mm^2
Total Area (mm^2) Migration (Monocytes; IPA 20 µM, media 8732): 6804 mm^2
Total Area (mm^2) Migration (Monocytes; IPA 25 µM, media 8732): 6435 mm^2
Total Area (mm^2) Migration (Monocytes; IPA 30 µM, media 8732): 5795 mm^2
Virus production (HIV-1 p24 antigen capture assay) (HIV-1 [1]): completely blocked
cytotoxic effect on the growth of viable PHA stimulated PBL (PBL): did not have any significant cytotoxic effect
IC50 (HIV-1 [2]; H9, HIV-1, as read from Figure 15, read-out: IC50): 2 µM
IC90 (HIV-1 [2]; H9, HIV-1, as read from Figure 15, read-out: IC90): 3 µM
IC50 (HIV-1 [2]; H9 Cells, from Figures 16 and 17, read-out: IC50 - The concentration of IPA which inhibits the replication of HIV-1 by 50%): 6 µM
IC90 (HIV-1 [2]; H9 Cells, from Figures 16 and 17, read-out: IC90 - The concentration of IPA which inhibits the replication of HIV-1 by 90%): 10 µM

— EP0462621A2, “Use of particular compounds for manufacture of pharmaceutical formulations for treatment against various parasites, mycoplasmas, other indications and other infections” (Prendergast, Patrick Thomas, priority 1990, dated 1991)
